From patent publication US20250188030A1, “Biphenyl and Phenylpyridine Compounds” (Pfizer Inc., priority 2023, published 2025)
Where two headings read alike, the source gives them in different places.

How the values were obtained:
KAT2A = KAT2A (Homo sapiens (Human), UniProt Q92830); assay: KAT2A acetyltransferase biochemical assay (RapidFire mass spectrometry, AcCoA to CoA)
Description: • A) Compound preparation • 1) Prepare 10 mM stock solutions in 100% DMSO from solid material. • 2) Serial dilute 10 mM, 1 mM, 0.1 or 0.01 mM compound stocks 3-fold in 100% DMSO for 11-point dose response. • B) Reagent preparation • 1) Prepare 1×assay buffer containing 40 mM bis tris propane pH 8.0, 10 mM NaCl, 0.5 mM EDTA, and 0.002% Tween-20. • 2) Dilute Histone peptide (CPC Scientific) and KAT enzyme together in assay buffer to 1.25×. • 3) Dilute AcCoA (Sigma) in assay buffer to 5×. • C) Enzyme reaction • 1) Final reaction conditions for each KAT assay in a 100ul assay reaction volume: • i) KAT2A 0.5 nM, 1 uM AcCoA, 5 uM H3 1-21 peptide, 90-minute reaction • ii) KAT2B 0.5 nM, 1 uM AcCoA, 5 uM H3 1-21 peptide, 90-minute reaction • 2) Add 2 ul of diluted compound series to the assay plate (96-well round-bottom polypropylene plates) or 2 ul of DMSO for control wells. • 3) Add 11 μL of 10% formic acid to 100% effect (HPE) control wells. • 4) Add 80 ul of 1.25× Histone peptide/KAT mix to the assay plate via Multidrop Combi (ThermoFisher). Incubate 15 min at room temperature. • 5) Add 20 ul of 5× AcCoA to the assay plate via Multidrop Combi. • 6) Stop the reaction after the indicated time with the addition of 11 ul of 10% formic acid via Multidrop Combi. • 7) Each reaction was analyzed using Rapid Fire mass spectrometry platform.
KAT enzymes were expressed using a baculovirus expression system and purified at Pfizer, La Jolla. […] Acetyl coenzyme A was purchased from Sigma-Aldrich (St. Louis, MO). All other biochemical reagents were purchased from Sigma-Aldrich or ThermoFisher Scientific (Waltham, MA).
KAT assays were performed at room temperature in assay buffer containing 1 μM AcCoA, 5 μM histone peptide, 40 mM bis tris propane pH 8.0, 10 mM NaCl, 0.5 mM EDTA 0.002% Tween-20. 80 ul of 1.25× Histone peptide/enzyme mix was added to a 96-well round-bottom polypropylene assay plate containing 2 ul of serially diluted test compound in 100% dimethyl sulfoxide (DMSO). To start the reaction, 20 ul of 5× AcCoA solution was added to the assay plate. KAT assays were terminated after 90 minutes with the addition of 11 ul of 10% formic acid. All assays used histone H3 (1-21) peptide. The final enzyme concentration for each KAT was as follows: KAT2A, 0.5 nM; KAT2B, 0.5 nM. […] Each reaction was analyzed using Rapid Fire mass spectrometry platform. This methodology leverages an Agilent 6495 triple quadrupole (QQQ) mass spectrometer coupled to a RapidFire model 365 to specifically capture and measure KAT2 acetyltransferase activity, converting AcCoA (substrate) to CoA (product).
Area under the curve (AUC) for both substrate and product peaks was determined for KAT2 at M.W. 809.6 [Substrate+H]+ and 767.3 [Product+H]+ with a +/−1 Da tolerance, respectively. Acetyltransferase activity (% of DMSO control) was calculated by: ((AUCProduct/AUCsubstrate)-AUCHPE)/(AUCZPE-AUCHPE))*100. Ki values were determined by fitting the % acetyltransferase activity at each inhibitor concentration to the Morrison equation for tightbinding competitive inhibitors using Pfizer proprietary curve fitting software.
To determine the inhibition of KAT enzymatic activity by test compounds, assay reactions were conducted in a volume of 100 μL in 96-well round-bottom polypropylene assay plate. The reactions were performed in assay buffer (40 mM bis tris propane, pH 8, 10 mM NaCl, 0.5 mM EDTA, 0.002% Tween-20).

H3K9AC (HT1080 cells) = assay: H3K9AC Sandwich ELISA Assay in HT1080 cells (KAT2A primary cell-based screening assay); parameters: species or system Human
Description: Human fibrosarcoma cell line HT1080 was obtained from American Type Culture Collection (ATCC), Manassas, VA USA, Cat. HT-1080 (ATCC® CCL-121™). Cells were cultured in MEM (Thermo Fisher Scientific/Gibco Life Technologies Cat. #11-095-080) plus 10% (v/v) FBS (Thermo Fisher Scientific/Gibco Life Technologies Cat. #26140-079) and 1% Penicillin-Streptomycin (Thermo Fisher Scientific/Gibco Life Technologies Cat. #15070063) at 37° C. in 5% CO2.
HT1080 cells were trypsinized, cell viability count performed, and cells suspended in complete media at 100,000 cells/ml. Cells were seeded (100 μl/well) into Greiner Bio-One CELLSTAR 96-well polystyrene flat bottom cell culture microplate (Thermo Fisher Scientific Cat. #07-000-162) at a density of 10,000 cells/well. Cells were incubated for 16 hours at 37° C. at 5% CO2. Compound dilution plates were prepared in 96-well, clear U-bottom, polypropylene plates (Corning 3365) in 100% DMSO at 10 mM stock concentration in duplicate, using 10-point serial dilution (1:3). Compounds were diluted to 1:200 in growth medium and 25 μl from intermediate compound plates were added to each well of the cell plates using a Beckman FX liquid handling system such that the highest compound concentration tested was 10 μM final, with a 0.1% final DMSO concentration in the total volume of 125 μl. Plates were incubated for 24 hours at 37° C. and 5% CO2. Plates were centrifuged at 2500 rpm for 5 minutes and medium was removed. 100 μL 0.4N HCL (Thermo Fisher Scientific Cat #SA56-1) was added to each well and plates were shaken for 60 minutes at 4C to lyse cells. 38ul 0.4N Sodium phosphase dibasic pH12.5 (Thermo Fisher Scientific Cat #S375-212) containing 2 mM Sodium Butyrate (Millipore TR1008G) and 3 mM Phenylmethanesulfonyl-fluoride (Sigma 93482) was added to each well to neutralize lysates.
Cell lysate plates were mixed for 5 minutes at room temperature on shaker and immediately frozen at −80C overnight. Cell lysates were thawed and 50 μL/well was transferred to ELISA plates (Total Histone H3 mouse (Cell Signaling Technology Cat #14269) mAb-coated Corning 1×8 strip-well, white, 96-well plates (Corning 2485)). After 2 hours room temperature incubation, plates were washed six times with PBS/0.05% Tween Wash Buffer using a BioTek plate washer. 50 μL of Histone H3K9AC rabbit detection mAb (Cell Signaling Technology Cat #9649S) diluted 1:1000 in blocking buffer (Thermo Fisher Scientific Cat #37542) was added to each well and incubated for 2 hours at room temperature. After washing, 50 μL anti-rabbit IgG, HRP-Linked antibody (Cell Signaling Technology Cat #7074) diluted 1:1000 in blocking buffer was added to each well and incubated for 60 minutes at room temperature. Following incubation, plates were washed as described above. 50 μL of luminescent GLO substrate reagent (R&D System Cat #DY993) was added to each well and incubated for 10 minutes at room temperature. Plates were read on the PHERAstar plate reader using the 96-well with Luminescent reading mode. IC50 values were calculated using a four-parameter fit with GraphPad Prism version 9.5.1 or in-house modified IDBS ActivityBase data analyzing package.

[1] = read-out: KAT2A Ki at 1 μM AcCoA, 5 μM H3 1-21 peptide, 0.5 nM KAT2A, 90-minute reaction
[2] = Homo sapiens, HT-1080, H3K9AC sandwich ELISA

KAT2A, sequence (Q92830 whole entry): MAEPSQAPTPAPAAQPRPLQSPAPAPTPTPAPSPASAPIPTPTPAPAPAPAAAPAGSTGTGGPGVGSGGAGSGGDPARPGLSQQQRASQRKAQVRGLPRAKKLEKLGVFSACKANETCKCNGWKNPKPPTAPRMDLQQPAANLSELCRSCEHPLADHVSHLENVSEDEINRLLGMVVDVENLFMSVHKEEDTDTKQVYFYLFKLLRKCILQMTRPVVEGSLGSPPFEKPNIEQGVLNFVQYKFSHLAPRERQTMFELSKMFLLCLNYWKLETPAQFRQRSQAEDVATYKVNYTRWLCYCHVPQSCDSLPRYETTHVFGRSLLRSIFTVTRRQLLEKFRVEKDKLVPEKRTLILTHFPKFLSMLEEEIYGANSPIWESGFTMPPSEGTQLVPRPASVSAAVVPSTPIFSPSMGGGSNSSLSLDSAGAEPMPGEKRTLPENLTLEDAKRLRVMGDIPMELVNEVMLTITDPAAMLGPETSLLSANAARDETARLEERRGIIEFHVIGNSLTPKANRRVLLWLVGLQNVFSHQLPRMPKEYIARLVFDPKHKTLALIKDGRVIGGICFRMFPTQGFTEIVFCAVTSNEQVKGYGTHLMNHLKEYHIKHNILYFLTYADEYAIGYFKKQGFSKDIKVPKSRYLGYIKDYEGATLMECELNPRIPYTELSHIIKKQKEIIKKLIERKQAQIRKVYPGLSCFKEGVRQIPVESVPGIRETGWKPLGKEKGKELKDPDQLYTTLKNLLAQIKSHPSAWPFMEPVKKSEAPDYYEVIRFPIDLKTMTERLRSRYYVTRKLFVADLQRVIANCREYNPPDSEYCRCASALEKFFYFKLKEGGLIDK

| SMILES | Ki (KAT2A; [1]) [nM] | IC50 (H3K9AC (HT1080 cells); H3K9AC sandwich ELISA) [nM] | IC50 (H3K9AC (HT1080 cells); [2]) [nM] | Ki (KAT2A; KAT2A Ki at 1 μM AcCoA, 5 μM H3 1-21 peptide, 0.5 nM KAT2A, 90-minute reaction) [nM] |
| --- | --- | --- | --- | --- |
| CC(C)S(=O)(=O)NC(=O)Cc1ccc(O[C@@H]2CC[C@@H](NC(=O)[C@@]3(F)CNCC(C)(C)C3)C2)c(-c2cccc(F)c2C2CCC2)c1 (single isomer, unassigned) [Example C77] | 0.05 | 6 | – | – |
| CC1(C)CNC[C@](F)(C(=O)N[C@@H]2CC[C@@H](Oc3ccc(CC(=O)NS(=O)(=O)C4(C)CC4)cc3-c3cccc(F)c3C3CCC3)C2)C1 (single isomer, unassigned) [Example C78] | 0.08 | > 1000 | – | – |
| CC1(C)CNC[C@](F)(C(=O)N[C@@H]2CC[C@@H](Oc3ccc(CC(=O)NS(=O)(=O)C4(C)CC4)cc3-c3cccc(F)c3C3CCC3)C2)C1 (single isomer, unassigned) [Example C79] | 0.06 | 3.6 | – | – |
| CC(C)c1ccccc1-c1cc(CC(=O)NS(=O)(=O)C2(C)CC2)ccc1O[C@@H]1CC[C@@H](NC(=O)[C@@]2(F)CNCC(C)(C)C2)C1 (single isomer, unassigned) [Example C80] | 0.11 | 2.6 | – | – |
| CC(C)c1ccccc1-c1cc(CC(=O)NS(=O)(=O)C2(C)CC2)ccc1O[C@@H]1CC[C@@H](NC(=O)[C@@]2(F)CNCC(C)(C)C2)C1 (single isomer, unassigned) [Example C81] | 31.1 | 135 | – | – |
| CCc1c(F)cccc1-c1cc([C@@H](C)C(=O)NS(=O)(=O)C2(C)CC2)ccc1O[C@@H]1CC[C@@H](NC(=O)[C@@]2(F)CNC3(CCC3)C2)C1 (single isomer, unassigned) [Example C82] | 0.07 | 8.7 | – | – |
| CCc1c(F)cccc1-c1cc([C@@H](C)C(=O)NS(=O)(=O)C2(C)CC2)ccc1O[C@@H]1CC[C@@H](NC(=O)[C@@]2(F)CNC3(CCC3)C2)C1 (single isomer, unassigned) [Example C83] | 0.08 | 2.4 | – | – |
| CCc1c(F)cccc1-c1cc([C@@H](C)C(=O)NS(=O)(=O)C2(C)CC2)ccc1O[C@@H]1CC[C@@H](NC(=O)[C@@]2(F)CNC3(CCCC3)C2)C1 (single isomer, unassigned) [Example C85] | 0.17 | 6.1 | – | – |
| CCc1c(F)cccc1-c1cc([C@@H](C)C(=O)NS(=O)(=O)C2(C)CC2)ccc1O[C@@H]1CC[C@@H](NC(=O)[C@@]2(F)CNC3(CCCC3)C2)C1 (single isomer, unassigned) [Example C87] | 0.07 | 1.5 | – | – |
| CCS(=O)(=O)NC(=O)[C@H](C)c1ccc(O[C@@H]2CC[C@@H](NC(=O)[C@@]3(F)CNC4(CCC4)C3)C2)c(-c2ccccc2C(C)C)c1 (single isomer, unassigned) [Example C88] | 0.21 | – | 10.3 | – |
| CCS(=O)(=O)NC(=O)C(C)c1ccc(O[C@@H]2CC[C@@H](NC(=O)[C@@]3(F)CNC4(CCC4)C3)C2)c(-c2ccccc2C(C)C)c1 (single isomer, unassigned) [Example C89] | 0.16 | 6.5 | – | – |
| CCS(=O)(=O)NC(=O)C(C)c1ccc(O[C@@H]2CC[C@@H](NC(=O)[C@@]3(F)CNC4(CCC4)C3)C2)c(-c2cccc(F)c2C2CCC2)c1 (single isomer, unassigned) [Example C90] | 0.05 | – | 3.3 | – |
| CCS(=O)(=O)NC(=O)[C@H](C)c1ccc(O[C@@H]2CC[C@@H](NC(=O)[C@@]3(F)CNC4(CCC4)C3)C2)c(-c2cccc(F)c2C2CCC2)c1 (single isomer, unassigned) [Example C91] | 0.06 | 5.4 | – | – |
| CN1CC2(CCCC2)C[C@@H]1C(=O)N[C@@H]1CC[C@@H](Oc2ccc(C(=O)O)cc2-c2ccccc2C2CCC2)C1 (single isomer, unassigned) [Example D9] | 6.76 | – | 67.2 | – |
| C[C@H](C(=O)NS(C)(=O)=O)c1ccc(OC[C@H]2C[C@H](NC(=O)[C@@H]3CC(C)(C)CN3C)C2)c(-c2cccc(F)c2C2CCC2)c1 (single isomer, unassigned) [Example G3] | 2.15 | – | 20.5 | – |
| C[C@@H](C(=O)NS(C)(=O)=O)c1ccc(OC[C@H]2C[C@H](NC(=O)[C@@H]3CC(C)(C)CN3C)C2)c(-c2cccc(F)c2C2CCC2)c1 (single isomer, unassigned) [Example G4] | 1.3 | – | 30.4 | – |
| C[C@@H](C(=O)O)c1nn(C)cc1-c1ccc(O[C@@H]2CC[C@@H](NC(=O)[C@]3(F)CNC4(CCC4)C3)C2)c(-c2cccc(F)c2C2CCC2)c1 (single isomer, unassigned) [Example J2] | – | 790 | – | 61.6 |
| Cn1cc(-c2ccc(O[C@@H]3CC[C@@H](NC(=O)[C@]4(F)CNC5(CCC5)C4)C3)c(-c3cccc(F)c3C3CCC3)c2)c(C(C)(C)C(=O)O)n1 (single isomer, unassigned) [Example J6] | > 1000 | 746 | – | – |
| Cn1cc(-c2ccc(O[C@@H]3CC[C@@H](NC(=O)[C@]4(F)CNC5(CCC5)C4)C3)c(-c3cccc(F)c3C3CCC3)c2)c(C(=O)O)n1 (single isomer, unassigned) [Example J9] | 2.16 | 4300 | – | – |
| O=C(O)c1nn(C2CC2)cc1-c1ccc(O[C@@H]2CC[C@@H](NC(=O)[C@@]3(F)CNC4(CCC4)C3)C2)c(-c2cccc(F)c2C2CCC2)c1 (single isomer, unassigned) [Example J11] | 0.08 | 8.85 | – | – |
| O=C(O)c1nn(C2CC2)cc1-c1ccc(O[C@@H]2CC[C@@H](NC(=O)[C@@]3(F)CNC4(CCC4)C3)C2)c(-c2cccc(F)c2C2CCC2)c1 (single isomer, unassigned) [Example J12] | 25.8 | > 1000 | – | – |
| CC(C)n1cc(-c2ccc(O[C@@H]3CC[C@@H](NC(=O)[C@@]4(F)CNC5(CCC5)C4)C3)c(-c3cccc(F)c3C3CCC3)c2)c(C(=O)O)n1 (single isomer, unassigned) [Example J15] | 27.3 | 451 | – | – |
| CN1CC(C)(C)C[C@H]1C(=O)N[C@H]1C[C@H](Oc2ccc(C(=O)O)cc2-c2ccccc2C2CCC2)C[C@H]1O (single isomer, unassigned) [Example K2, 2′-cyclobutyl-6-({(1ξ,3ξ,4ξ)-3-hydroxy-4-[(1,4,4-trimethyl-L-prolyl)amino]cyclopentyl}oxy)[1,1′-biphenyl]-3-carboxylic acid] | 1.21 | – | 28.6 | – |
| O=C(O)c1ccc(O[C@@H]2CC[C@@H](NC(=O)[C@@]3(F)CNC4(CCC4)C3)C2)c(-c2cccc(F)c2C2CCC2)c1 [Example A29, 2′-cyclobutyl-3′-fluoro-6-{[(1R,3R)-3-{[(7S)-7-fluoro-5-azaspiro[3.4]octane-7-carbonyl]amino}cyclopentyl]oxy}[1,1′-biphenyl]-3-carboxylic acid] | 0.11 | – | > 1000 | – |
| CCc1c(F)cccc1-c1cc(C(C)(C)C(=O)NS(=O)(=O)CC)ccc1O[C@@H]1CC[C@@H](NC(=O)[C@@]2(F)CNC3(CCC3)C2)C1 [Example C17, (7S)-N-[(1R,3R)-3-({5-[1-(ethanesulfonamido)-2-methyl-1-oxopropan-2-yl]-2′-ethyl-3′-fluoro[1,1′-biphenyl]-2-yl}oxy)cyclopentyl]-7-fluoro-5-azaspiro[3.4]octane-7-carboxamide] | 2750 | – | > 1000 | – |
